pIC50: −log10 of the molar value.

This passage reports inhibition, Activity and IC50 results from ChEMBL document CHEMBL3727348, “3-(aryl or heteroaryl) methyleneindolin-2-one derivatives as inhibitors of cancer stem cell pathway kinases for the treatment of cancer” (2014).

Assay [1] deals with Serine/threonine-protein kinase RIO2 (Homo sapiens) (UniProt Q9BVS4). As to the kind of experiment: Inhibition of N-terminal GST-fused full length human recombinant RIOK2 expressed in baculovirus Sf21 cells assessed as reduction in kinase auto-phosphorylation at 1 uM in presence of ATP incubated for 1 hr by ELISA method. In general terms: An ELISA detects its analyte on a solid surface through an enzyme-linked reagent.

Assay [2] has the same target. As to the kind of experiment: Inhibition of N-terminal GST-fused full length human recombinant RIOK2 expressed in baculovirus Sf21 cells assessed as reduction in kinase auto-phosphorylation at 10 uM in presence of ATP incubated for 1 hr by ELISA method.
The target of assay [3] is AMP-activated protein kinase, AMPK (Homo sapiens) (UniProt P54646+O43741+P54619+Q9UGJ0+Q9Y478+Q13131+Q9UGI9). As to the kind of experiment: Inhibition of AMPK in human HeLa cells assessed as kinase phosphorylation level at 5 uM incubated for 6 hrs by SDS-PAGE based chemiluminescence assay. The class given is cell-based. Further details: scale not given: the % may be the effect or the level left.

The subject of assay [4] is FaDu. As to the kind of experiment: Cytotoxic activity against human FADU bulk cells incubated for 72 hrs by Cell-titer-Glo luminescence assay. The class given is functional, cell-based.
Assay [5] relates to ACHN. As to the kind of experiment: Cytotoxic activity against human ACHN cancer stem cells incubated for 72 hrs by Cell-titer-Glo luminescence assay. Format: functional, cell-based.
In assay [6] the test system is ACHN. The experiment in a line: Cytotoxic activity against human ACHN bulk cells incubated for 72 hrs by Cell-titer-Glo luminescence assay. The class given is functional, cell-based.
In assay [7] the test system is A549. The experiment in a line: Cytotoxic activity against human A549 cancer stem cells incubated for 72 hrs by Cell-titer-Glo luminescence assay. The class given is functional, cell-based. The note with it: A549, 72 h.
The subject of assay [8] is FaDu. The experiment in a line: Cytotoxic activity against human FADU cancer stem cells incubated for 72 hrs by Cell-titer-Glo luminescence assay. Format: functional, cell-based.
Assay [9] deals with T1, Ribosomal protein S6 kinase (Homo sapiens) (UniProt P51812+Q9UBS0+O75676+Q15349+O75582+P23443+Q9UK32+Q15418). The experiment in a line: Inhibition of RPS6 kinase in human HeLa cells assessed as p-RPS6 Ser240/244 phosphorylation level at 5 uM incubated for 6 hrs by SDS-PAGE based chemiluminescence assay. Format: cell-based. The arrangement: scale not given: the % may be the effect or the level left.

Assay [10] relates to A549. As to the kind of experiment: Cytotoxic activity against human A549 bulk cells incubated for 72 hrs by Cell-titer-Glo luminescence assay. The note with it: A549, 72 h. The class given is functional, cell-based.
In assay [11] the target is T1, Ribosomal protein S6 kinase (Homo sapiens). The experiment in a line: Inhibition of RPS6 kinase in human HeLa cells assessed as p-RPS6 Ser235/236 phosphorylation level at 5 uM incubated for 6 hrs by SDS-PAGE based chemiluminescence assay. Format: cell-based. The arrangement: scale not given: the % may be the effect or the level left.

Chain of Serine/threonine-protein kinase RIO2 (Homo sapiens) (Q9BVS4 whole entry, looked up, the tested form may be a part): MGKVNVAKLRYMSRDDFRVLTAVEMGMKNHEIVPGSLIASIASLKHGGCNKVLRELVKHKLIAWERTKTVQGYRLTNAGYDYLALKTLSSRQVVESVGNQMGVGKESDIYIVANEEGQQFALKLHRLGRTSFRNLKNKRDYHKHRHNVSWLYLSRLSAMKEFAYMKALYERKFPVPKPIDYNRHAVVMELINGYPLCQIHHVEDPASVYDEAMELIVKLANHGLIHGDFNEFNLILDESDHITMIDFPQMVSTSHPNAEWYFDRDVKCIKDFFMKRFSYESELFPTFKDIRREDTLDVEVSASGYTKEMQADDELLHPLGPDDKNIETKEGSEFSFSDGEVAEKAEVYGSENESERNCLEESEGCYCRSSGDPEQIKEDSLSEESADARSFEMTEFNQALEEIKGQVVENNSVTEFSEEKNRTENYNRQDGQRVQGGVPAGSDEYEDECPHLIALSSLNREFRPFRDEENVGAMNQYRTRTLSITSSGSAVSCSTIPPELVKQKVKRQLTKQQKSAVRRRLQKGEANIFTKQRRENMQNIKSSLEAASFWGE

With `Cc1[nH]c(/C=C2\C(=O)Nc3ccc(-c4cnn(-c5ccccc5)c4)cc32)c(C)c1C(=O)N[C@H]1CCCNC1`, the results for the inhibition in assay [1] and in assay [2] were 1.4% and 122%, respectively.
The matching figures for `CCN(CC)CCNC(=O)c1c(C)[nH]c(/C=C2\C(=O)Nc3ccc(-c4cnn(-c5ncccn5)c4)cc32)c1C`: 42% and 112%.
The matching figures for `Cc1[nH]c(/C=C2\C(=O)Nc3ccc(-c4cnn(-c5ccccc5)c4)cc32)c(C)c1C(=O)NC1CCNCC1`: 17% and 140%.
The matching figures for `Cc1[nH]c(/C=C2\C(=O)Nc3ccc(-c4cnn(-c5ccccc5)c4)cc32)c(C)c1C(=O)NCCc1ncc[nH]1`: -2% and 25%.
Take `CCN(CC)CCNC(=O)c1c(C)[nH]c(/C=C2\C(=O)Nc3ccc(-c4ccnn4-c4ccc(Cl)c(Cl)c4)cc32)c1C`: the results for the inhibition in assay [1] and in assay [2] were 18% and 87%, respectively.
With `CCN(CC)CCNC(=O)c1c(C)[nH]c(/C=C2\C(=O)Nc3ccc(-c4ccnn4-c4cccc(C)c4)cc32)c1C`, the inhibition in assay [1] was determined as 29%; in assay [2], 137%.
The matching figures for `Cc1[nH]c(/C=C2\C(=O)Nc3ccc(-c4cnn(-c5ccccc5)c4)cc32)c(C)c1C(=O)NC1(CN2CCCCC2)CC1`: 6% and 107%.
On to `CCN(CC)CCNC(=O)c1c(C)[nH]c(/C=C2\C(=O)Nc3ccc(-c4ccnn4-c4ccc(F)cc4)cc32)c1C`, for which the inhibition in assay [1] came to 39%; in [2], 104%.
The like results for `CCN(CC)CCNC(=O)c1c(C)[nH]c(/C=C2\C(=O)Nc3ccc(-c4ccnn4-c4ccccc4F)cc32)c1C` were, in that order, 56% and 116%.
The matching figures for `CCN(CC)CCNC(=O)c1c(C)[nH]c(/C=C2\C(=O)Nc3ccc(-c4ccnn4-c4ccncc4)cc32)c1C`: -6% and 44%.
The matching figures for `CCN(CC)CCNC(=O)c1c(C)[nH]c(/C=C2\C(=O)Nc3ccc(-c4cnn(-c5ccccc5Cl)c4)cc32)c1C`: 4% and 99%.
For the compound `Cc1[nH]c(/C=C2\C(=O)Nc3ccc(-c4cnn(-c5ccccc5)c4)cc32)c(C)c1C(=O)N[C@@H]1CCCNC1`, the inhibition in assay [1] turned out to be 22%; in assay [2], 130%.
The matching figures for `Cc1[nH]c(/C=C2\C(=O)Nc3ccc(-c4cnn(-c5ccccc5)c4)cc32)c(C)c1C(=O)NC[C@H]1CCCN1`: 9% and 126%.
Regarding `CCN(CC)CCNC(=O)c1c(C)[nH]c(/C=C2\C(=O)Nc3ccc(-c4ccnn4-c4ccc(OC)cc4)cc32)c1C`, the inhibition in [1] was determined as 34%; in [2] it was 106%.
The like results for `CCN(CC)CCNC(=O)c1c(C)[nH]c(/C=C2\C(=O)Nc3ccc(-c4ccnn4-c4ccccn4)cc32)c1C` were, in that order, 14% and 93%.
As for `CCN(CC)CCNC(=O)c1c(C)[nH]c(/C=C2\C(=O)Nc3ccc(-c4ccc(-c5ccccc5)o4)cc32)c1C`, the figures for the Activity in assay [3], in assay [9] and in [11] were 144%, 64% and 19%, respectively. Besides, the pIC50 is 5.51 in the assay on FaDu [4]; 6.60 in the assay with ACHN [5]; 5.44 with ACHN [6]; 5.08 in the assay on A549 [7]; 5.85 with FaDu [8]; 5.37 with A549 [10].
As to `CCOCCCNC(=O)c1c(C)[nH]c(/C=C2\C(=O)Nc3ccc(-c4cnn(-c5ccccc5)c4)cc32)c1C`, the inhibition in assay [1] was -7%; in assay [2] it was 43%.
Regarding `CCN(CC)CCNC(=O)c1c(C)[nH]c(/C=C2\C(=O)Nc3c2cccc3-c2cncc(C)c2)c1C`, the Activity in [3] was 50%; in [9], 59%; in [11] it was 47%. Besides, the pIC50 with FaDu [4] is 5.21; with ACHN [5], 5.71; in the assay on ACHN [6] it was 5.77; in the assay with A549 [7], 5.65; with FaDu [8], 5.66; in the assay on A549 [10], 5.47.
On to `Cc1cc(C)c(/C=C2\C(=O)Nc3ccc(-c4csc(C5CCNCC5)n4)cc32)[nH]1`, for which the Activity in [3] came out at 47%; in [9], 76%; in assay [11] it was 76%. The pIC50 was 5.79 with FaDu [4]; 7.05 in the assay with ACHN [5]; 5.81 in the assay on ACHN [6]; 6.06 with A549 [7]; 6.37 with FaDu [8]; 5.89 in the assay with A549 [10].
For `CCN(CC)CCNC(=O)c1c(C)[nH]c(/C=C2\C(=O)Nc3ccc(-c4csc(-c5ccc(O)cc5)n4)cc32)c1C`, the Activity in assay [3] is 47%; in assay [9] it was 88%; in [11] it was 79%. Further, the pIC50 in the assay with FaDu [4] is 6.15; in the assay on ACHN [5], 6.30; with ACHN [6], 5.86; in the assay on A549 [7], 5.16; in the assay with FaDu [8], 5.73; in the assay on A549 [10], 5.51.
Take `CCN(CC)CCNC(=O)c1c(C)[nH]c(/C=C2\C(=O)Nc3c2cccc3-c2cccnc2OC)c1C`: the Activity in [3] turned out to be 31%; in [9], 54%; in assay [11], 48%. Moreover, the pIC50 is 5.42 with FaDu [4]; 5.57 with ACHN [5]; 5.44 with ACHN [6]; 5.16 in the assay with A549 [7]; 5.72 in the assay with FaDu [8]; 5.27 in the assay with A549 [10].
In the case of `Cc1[nH]c(/C=C2\C(=O)Nc3cc(-c4csc(-c5ccccc5)n4)ccc32)c(C)c1C(=O)N1CCN(C)CC1`, the values for the Activity in [3], in assay [9] and in assay [11] were 150%, 73% and 33%, respectively. Besides, the pIC50 with FaDu [4] is 5.32; in the assay with ACHN [5], 6.41; with ACHN [6], 4.94; in the assay with A549 [7] it was 5.91; with FaDu [8], 5.99; in the assay with A549 [10], 4.58.
As for `CCN(CC)CCNC(=O)c1c(C)[nH]c(/C=C2\C(=O)Nc3c2cccc3-c2ccc3cc[nH]c3c2)c1C`, the Activity worked out at 39% in assay [3], 44% in assay [9] and 29% in assay [11]. Besides, the pIC50 is 5.56 in the assay with FaDu [4]; 5.73 in the assay on ACHN [5]; 5.52 with ACHN [6]; 5.41 in the assay with A549 [7]; 5.69 with FaDu [8]; 5.54 in the assay on A549 [10].
With `Cc1cc(C)c(/C=C2\C(=O)Nc3ccc(-c4ccc5cn[nH]c(=O)c5c4)cc32)[nH]1`, the Activity in assay [3] came out at 39%; in assay [9] it was 24%; in assay [11], 1%. Further, the pIC50 is 5.59 with FaDu [4]; 6.59 with ACHN [5]; 5.95 in the assay with ACHN [6]; 5.52 in the assay with A549 [7]; 5.53 in the assay on FaDu [8]; 5.85 in the assay on A549 [10].
Turning to `Cc1cc(C)c(/C=C2\C(=O)Nc3ccc(-c4csc(C5CCCNC5)n4)cc32)[nH]1` (centres undefined), the Activity in assay [3] turned out to be 69%; in assay [9], 34%; in assay [11] it was 6%. Besides, the pIC50 is 5.80 with FaDu [4]; 7.30 in the assay on ACHN [5]; 5.79 with ACHN [6]; 5.77 in the assay on A549 [7]; 6.32 with FaDu [8]; 5.87 with A549 [10].
In the case of `Cc1cc(C)c(/C=C2\C(=O)Nc3cccc(-c4ccncc4)c32)[nH]1`, the Activity in [3] was 75%; in assay [9], 47%; in assay [11], 50%. Besides, the pIC50 in the assay on FaDu [4] was 4.71; in the assay on ACHN [5], 4.79; in the assay with ACHN [6], 4.70; in the assay with A549 [7] it was 4.52; with FaDu [8] it was 4.91; with A549 [10], 4.88.
As for `CCN(CC)CCNC(=O)c1c(C)[nH]c(/C=C2\C(=O)Nc3cccc(-c4ccc(-c5ccccc5)cc4)c32)c1C`, the Activity in assay [3] was 8%; in [9] it was 23%; in assay [11] it was 2%. Also, the pIC50 in the assay with FaDu [4] is 5.95; in the assay on ACHN [5] it was 6.48; with ACHN [6] it was 5.80; with A549 [7] it was 5.36; with FaDu [8], 6.55; in the assay with A549 [10], 5.29.
Take `CCN(CC)CCNC(=O)c1c(C)[nH]c(/C=C2\C(=O)Nc3ccc(-c4csc(-c5ccccc5)n4)nc32)c1C`: the Activity in assay [3] stood at 35%; in assay [9] it was 42%; in assay [11], 5%. Further, the pIC50 with FaDu [4] was 5.86; in the assay with ACHN [5], 6.01; with ACHN [6], 5.86; with A549 [7] it was 6.21; in the assay with FaDu [8] it was 6.96; in the assay on A549 [10] it was 5.76.
`CCN(CC)CCNC(=O)c1c(C)[nH]c(/C=C2\C(=O)Nc3ccc(-c4cccnc4)cc32)c1C`: the values for the Activity in [3], in assay [9] and in assay [11] were 8%, 31% and 1%, respectively. In addition, the pIC50 in the assay on FaDu [4] is 5.55; with ACHN [5] it was 5.97; with ACHN [6], 5.88; with A549 [7], 5.41; with FaDu [8] it was 5.37; in the assay with A549 [10], 6.08.

One may read the inhibition as the relative decrease from the control value, in per cent. One may read the pIC50 as the IC50 on a negative log10 scale, so that one unit is a factor of ten.
